# Data taken from PMC6104183, “How Female Mice Attract Males: A Urinary Volatile Amine Activates a Trace Amine-Associated Receptor That Induces Male Sexual Interest” (Frontiers in Pharmacology, 2018).
# Target: T1, TAAR3 (Mus musculus, UniProt Q5QD16)
# T1 construct: transiently expressed with Galpha-olf in HEK293 cells
# T1 sequence (Q5QD16 1-343): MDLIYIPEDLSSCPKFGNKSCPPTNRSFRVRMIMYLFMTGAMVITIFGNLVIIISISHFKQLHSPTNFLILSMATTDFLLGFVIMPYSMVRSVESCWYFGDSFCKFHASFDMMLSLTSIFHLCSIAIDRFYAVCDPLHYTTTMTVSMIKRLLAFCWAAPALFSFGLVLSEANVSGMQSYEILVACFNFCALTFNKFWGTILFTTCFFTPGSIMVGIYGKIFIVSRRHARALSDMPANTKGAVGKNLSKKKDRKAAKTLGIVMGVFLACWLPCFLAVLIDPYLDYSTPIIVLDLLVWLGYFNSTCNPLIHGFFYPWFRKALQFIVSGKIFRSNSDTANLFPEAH
# Assay: cAMP accumulation, HEK293 cells, luminescence
# Assay type: cell-based
smiles,measurement,value
CC(C)CN [isobutylamine],EC50,32 nM
